# Key:
# VSMC-E1A = assay: Chromatin cleavage assay in VSMC-E1A; format: cell-based, rat; conditions: VSMC-E1A; for Increment of chromatin fragments triggered by serum withdrawal(%): 1 mM, pretreated 2 hours then 3 hours with or without calf serum, control increment taken as 100%
# Method: FIG. 2. Effect of ouabain on chromatin cleavage in VSMC-E1A. (A) Kinetics of the accumulation of chromatin fragments in control (curves 1, 3) and ouabain-treated (curves 2, 4) VSMC-E1A in the presence of 10% calf serum (CS, curves 1, 2) or in CS-free medium (curves 3, 4). Mean values ±S.E. obtained in experiments performed in quadruplicate are given. (B) Content of chromatin fragments in VSMC-E1A subjected to 6 hr of incubation in serum-supplied medium with or without 1 mM ouabain, 0.25 μM staurosporine, 1 μM okadaic acid and 350 mM mannitol. Mean values±S.E. obtained in 3 experiments performed in quadruplicate are given. ★, ★★ p<0.05 and 0.001 compared to ouabain-untreated cells. In both experiments, ouabain was added 1 hour before triggering of apoptosis.
# Cells were incubated in K^+-containing medium consisting of 91 mM NaCl, 5 mM KCl, 0.9 mM NaH2PO4, 44 mM NaHCO3, 1.8 mM CaCl2, 0.8 mM MgCl2, 33 mM HEPES and 5 mM D-glucose (pH 7.4) (lines 1 and 2) or in K^+-depleted medium (equimolar substitution of KCl by NaCl, line 3) with or without 10% calf serum (CS) and 1 mM ouabain as indicated. In experiments with VSMC-MYC and VSMC-E1A, cells were preincubated for 1 hr with ouabain or with K^+-depleted medium in the presence of CS and then subjected to treatment with serum-free media. After 24 hours (VSMC) or 6 hours (VSMC-MYC and VSMC-E1A), the content of chromatin fragments was measured as described in Experimental Procedures. Mean values±S.E. obtained in 3 experiments performed in quadruplicate (VSMC) or triplicate (VSMC-MYC, VSMC-E1A) are given. ★, ★★ p<0.05 and 0.001 compared to the controls.
# To estimate chromatin cleavage, cells were incubated for 1 hr in the presence of 10% calf serum (CS) in the control solution (DMEM, [Na^+]=137 mM; [K^+]=5 mM—line 1) or under equimolar substitution of NaCl by KCl ([Na^+]=14 mM; [K^+]=128 mM—line 2) with or without 1 mM ouabain and then for an additional 6 hours in the same media with or without CS. Intracellular Na^+ and K^+ content was measured as steady-state distribution of isotopes after 24 hours preincubation of cells in control Na^+-enriched solution containing 0.5 μCi/ml ^86Rb or 2 μCilml ^22Na, and additional 6 hours incubation in Na^+—(line 1) or K^+—(line 2) enriched medium, containing 10% CS and isotopes with the same specific activity with or without 1 mM ouabain. For more details see Experimental Procedures. Mean values±S.E. obtained in 3 experiments performed in triplicate (ion content) or quadruplicate (chromatin cleavage) are given. ★p<0.001 compared to ouabain-untreated cells.
# VSMC-E1A cells were pretreated with compounds indicated in the left column during 2 hours in DMEM containing 10% calf serum and then additional 3 hours in the absence or presence of calf serum. The increment of the content of chromatin fragments triggered by serum withdrawal in control cells was taken as 100%. Means+S.E. from experiments performed with quadruplicate are given. ★p<0.001 as compared to control.
# (§1) Cells. VSMC were obtained by explant methods from aortas of 10- to 13-week-old male rats as described previously (17), cultured in DMEM with 10% calf serum, 100 U/ml penicillin, 100 µg/ml streptomycin and used between 10 to 16 passages. Cells transfected with c-myc (VSMC-MYC) and E1A-adenovirus (VSMC-E1A) were obtained in accordance with a previously-described protocol (18,19) and were cultured in the same medium with the addition of 500 µg/ml genticin. Jurkat cells were obtained from the American Type Culture Collection and cultured in RPMI 1640 medium supplied with 10% calf serum, antibiotics, sodium pyruvate, glutamate and β-mercaptoethanol.
# Chromatin cleavage assay. Chromatin cleavage in VSMC was estimated by a technique described previously in detail (10). Briefly, VSMC grown in 24-well dishes were labeled for 24 hours in serum-supplied DMEM with [^3H]-thymidine (1 μCi/ml), washed with 2×2 ml of DMEM and incubated in serum-supplied DMEM. […]
# caspase-1 = molecular target: T1, caspase-1 (Rattus norvegicus, UniProt P43527); format: biochemical; conditions: lysates of VSMC-E1A after 6 hours serum withdrawal, 100 mM added, data not shown
# T1 construct: we measured the activity of caspases in lysates of VSMC-E1A subjected to 6 hours serum withdrawal; endogenous in cells; host or cells: VSMC-E1A (rat aortic vascular smooth muscle cells transfected with E1A adenoviral protein), cell lysate
# T1 sequence (P43527 119-402): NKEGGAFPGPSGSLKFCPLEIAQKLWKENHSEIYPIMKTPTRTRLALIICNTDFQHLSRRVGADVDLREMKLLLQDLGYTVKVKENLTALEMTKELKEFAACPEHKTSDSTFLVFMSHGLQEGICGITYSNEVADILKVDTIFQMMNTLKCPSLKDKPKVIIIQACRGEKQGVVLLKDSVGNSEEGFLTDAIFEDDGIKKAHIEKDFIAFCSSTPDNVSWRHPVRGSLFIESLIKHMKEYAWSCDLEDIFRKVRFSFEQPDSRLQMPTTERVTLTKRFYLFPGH
# Method: (§2) To examine this hypothesis, we measured the activity of caspases in lysates of VSMC-E1A subjected to 6 hours serum withdrawal has been measured.
# (§3) Caspase activity. VSMC-E1A seeded in 20 cm^2 flasks and treated as indicated in FIG. 5 were scratched, transferred to centrifuge tubes, washed twice with PBS and lysed in 0.5 ml of buffer A contaming 50 mM tris-HCl (pH 7.4), 5 mM MgCl2, 1 mM EGTA and 0.1% CHAPS. Then, 50-100 μl of cell lysate was mixed with 600 μl of buffer A containing 1 mM dithiothreitol, 40 μM YVAD-AMC or DEVD-AMC with or without 1 μM of caspase-1 and capspase-3 inhibitors (Ac-YVAD-CHO and Ac-DEVD-CHO, respectively), incubated for 2 hours at 37° C. and diluted 15-fold with 80 mM glycine-NaOH buffer (pH 10). Fluorescence of the samples was measured at ex=365 run and em=465 run and calibrated with AMC in the range of 10 to 100 nM. To measure caspase activity in control and ouabain-treated Jurkat cells, 5 ml of suspension containing ˜2×10^7 cells was transferred onto ice and sedimented. The pellet of cells was washed and treated with 0.3 ml of medium A in the same way as VSMC. Protein content was estimated by Bradford methods.
# caspase-3 [1] = format: biochemical, rat; conditions: lysates of VSMC-E1A after 6 hours serum withdrawal, 100 mM added, data not shown
# Method: as §2, §3
# caspase-3 [2] = assay: Caspase-3 activity in treated VSMC-E1A; format: cell-based, rat; conditions: 6 hours, staurosporine 0.25 μM, okadaic acid 1 μM
# Method: (§4) FIG. 5. Effect of ouabain on caspase-3 activity in VSMC-E1A (A) and Jurkat cells (B). VSMC-E1A and Jurkat cells were pretreated with 1 mM ouabain for 1 and 2 hours, respectively, and the additions indicated below the bars were delivered in media with 10% calf serum and with the baseline (137/5) or inverse (14/128) [Na^+]o/[K^+]o ratio for 6 (VSMC-E1A) or 3 hours (Jurkat cells). In experiments with VSMC-E1A, calf serum (CS) was omitted where indicated (−). Abbreviations: staur.—staurosporine (0.25 μM), ok.ac.—okadaic acid (1 μM), mann.—mannitol (350 mM); Fas-L—Fas ligand (100 ng/ml). Mean values±S.E. obtained in experiments performed in quadruplicate (A) or triplicate (B) are given. ★p<0.001 compared to ouabain-untreated cells.
# as §3
# caspase-3 [3] = assay: Caspase-3 activity in treated Jurkat cells; format: cell-based, human; conditions: 3 hours, Fas ligand 100 ng/ml, staurosporine 0.25 μM, mannitol 350 mM
# Method: as §4, §3
# Jurkat cells = assay: Chromatin cleavage assay in Jurkat cells; format: cell-based, human; conditions: for Chromatin fragments (%): Jurkat cells without ouabain, +Fas-L 100 ng/ml, 7 hours
# Method: FIG. 4. Effect of ouabain on chromatin cleavage in Jurkat cells. (A) Kinetics of accumulation of chromatin fragments in control (curves 1, 3) and ouabain-treated (curves 2, 4) cells in the absence (curves 1, 2) or presence (curves 3, 4) of 100 ng/ml of anti-human Fas (mouse monoclonal IgM, Upstate Biotechnology, Lake Placid, N.Y.); (B) Content of chromatin fragments in Jurkat cells subjected to 3 hours of incubation with or without 1 mM ouabain, 0.25 μM staurosporine and 350 mM mannitol. In both experiments, ouabain was added 2 hours before triggering of apoptosis. Mean values±S.E. obtained in experiments performed in triplicate are given.
# To estimate chromatin cleavage, cells were incubated for 2 hours in the presence of 10% calf serum in the control solution (DMEM, [Na^+]=137 mM; [K^+]=5 mM—line 1) or under equimolar substitution of NaCl with KCl ([Na^+]=14 mM; [K^+]=128 mM—line 2) with or without 1 mM ouabain and then for an additional 7 hours at the same media with or without 100 ng/ml Fas ligand (Fas-L). Intracellular Na^+ and K^+ content was measured as steady-state distribution of isotopes after 24 hours preincubation of cells in control Na^+-enriched solution containing 0.5 μCi/ml ^86Rb or 2 μCi/ml ^22Na, and an additional 6 hours incubation in Na^+—(line 1) or K^+—(line 2) enriched medium containing 10% calf serum, isotopes with the same specific activity with or without 1 mM ouabain. For more details see Experimental Procedures. Mean values±S.E. obtained in experiments performed in triplicate are given. ★, #p<0.01 and 0.001 compared to ouabain-untreated cells.
# as §1
# Chromatin cleavage assay. Chromatin cleavage in VSMC was estimated by a technique described previously in detail (10). Briefly, VSMC grown in 24-well dishes were labeled for 24 hours in serum-supplied DMEM with [^3H]-thymidine (1 μCi/ml), washed with 2×2 ml of DMEM and incubated in serum-supplied DMEM. In 48 hr, the cells were pretreated with ouabain or K^+-depleted medium as indicated in FIG. 2 and Table 3, washed twice with serum-containing medium and incubated with 0.5 ml of medium with or without ouabain and containing different inducers of apoptosis. To measure the content of chromatin fragments, the cells were transferred on ice and 1 ml of ice-cold lysed buffer (10 mM EDTA, 10 mM tris-HCl, 0.5% triton X100 (pH 8.0)) was added. After 15 min, the cell lysate was transferred to Ependorf tubes, sedimented (12,000 rpm, 10 mm), and 1 ml of supernatant was transferred for the measurement of radioactivity (A1t). The remaining radioactivity from pellets and wells was extracted with 0.5 ml of 1% SDS/4 mM EDTA mixture, combined and counted (A2). Chromatin cleavage was quantified as the content of chromatin fragments normalized by total content of [^3H]-labeled DNA in accordance with the equation [1.5×(A1t−A1o)/(A2+A1t−1.5A1o)]×100% where A1o is the value of A1t before induction of apoptosis. To measure chromatin fragmentation in [^3H]-thymidine-labeled Jurkat cells, they were resuspended at a density of 10^6 cells/ml in medium containing 10% calf serum and the additions indicated in FIG. 4 and Table 4. At the time intervals shown in FIG. 4, 100 μl of cell suspension was mixed with 100 μl of PBS contairung 0.5% triton X100, and the content of chromatin fragments was measured as described previously in detail (20).
compound,measurement,setting,value
"C[C@H]1O[C@@H](O[C@H]2[C@@H](O)C[C@H](O[C@H]3[C@@H](O)C[C@H](O[C@H]4CC[C@@]5(C)[C@H](CC[C@@H]6[C@@H]5CC[C@]5(C)[C@@H](C7=CC(=O)OC7)CC[C@]65O)C4)O[C@@H]3C)O[C@@H]2C)C[C@H](O)[C@@H]1O [Digitoxin, 5β,20[22]-cardenolide-3β,14-diol-3[O-2,6-dideoxy-β-D-ribohexopyranosyl-(1->4)-2,3-dideoxy-β-D-ribohexo-pyranosyl]oxy]",Increment of chromatin fragments triggered by serum withdrawal(%),VSMC-E1A,24 ± 6 %
"C[C@H]1O[C@@H](O[C@H]2[C@@H](O)C[C@H](O[C@H]3[C@@H](O)C[C@H](O[C@H]4CC[C@@]5(C)[C@H](CC[C@@H]6[C@@H]5C[C@@H](O)[C@]5(C)[C@@H](C7=CC(=O)OC7)CC[C@]65O)C4)O[C@@H]3C)O[C@@H]2C)C[C@H](O)[C@@H]1O [Digoxin, 12β-hydroxy-digitoxin]",Increment of chromatin fragments triggered by serum withdrawal(%),VSMC-E1A,18 ± 4 %
[Cl-].[K+] [KCl],decrease of caspase-1 activity,caspase-1,10-20%
same,decrease of caspase-3 activity,caspase-3 [1],10-20%
[Cl-].[Na+] [NaCl],decrease of caspase-1 activity,caspase-1,the same level of inhibition
same,decrease of caspase-3 activity,caspase-3 [1],the same level of inhibition
C[N+](C)(C)CCO.[Cl-] [choline chloride],decrease of caspase-1 activity,caspase-1,the same level of inhibition
same,decrease of caspase-3 activity,caspase-3 [1],the same level of inhibition
C=C1[C@@H](O)[C@@H]2O[C@]3(CC[C@H](/C=C/[C@@H](C)[C@@H]4CC(C)=C[C@@]5(O[C@H](C[C@@](C)(O)C(=O)O)CC[C@H]5O)O4)O3)CC[C@H]2O[C@@H]1[C@@H](O)C[C@H](C)[C@H]1O[C@@]2(CCCCO2)CC[C@H]1C [okadaic acid],content of chromatin fragments,"VSMC-E1A; 6 hr, serum-supplied medium, 0.25 μM staurosporine, 1 μM okadaic acid",28.3±4.2%
same,increase of caspase-3 activity,caspase-3 [2],10 fold
Fas ligand,increase of caspase-3 activity,caspase-3 [3],~30 fold
same,Chromatin fragments (%),"Jurkat cells; medium [Na+]o=14, [K+]o=128 mM",20.0±2.2%
same,Chromatin fragments (%),"Jurkat cells; medium [Na+]o=14, [K+]o=128 mM, listed as Fas-L",20.2%
same,Chromatin fragments (%),"Jurkat cells; medium [Na+]o=137, [K+]o=5 mM",28.5±3.3%
same,Chromatin fragments (%),"Jurkat cells; medium [Na+]o=137, [K+]o=5 mM, listed as Fas-L",28.5%
same,increase of the content of chromatin fragments,"Jurkat cells; Jurkat cells, 1.5 hour incubation with Fas ligand 100 ng/ml",10 fold
same,increment of the content of chromatin fragments triggered by Fas ligand,"Jurkat cells; control Jurkat cells, 7-hr incubation",23.6±3.9%
